From patent publication US20230295130A1, “COMPOUND USEFUL AS CDK7 KINASE INHIBITOR AND USE THEREOF” (TYK MEDICINES, INC., priority 2020, published 2023)

Key:
[1] = system: ovarian cancer cells A2780; test: Cell anti-proliferation experiment, MTT (Table 2); format: cell-based, human; conditions: Homo sapiens, A2780, 72 h, incubate 3 days
Text: (§1) Human breast cancer cells MDA-MB 231, MDA-MB453, ovarian cancer cells OVCAR3 and A2780, colorectal cancer cells HCT-116 and WiDr, and lung cancer cell Calu-6 were purchased from BNCC. DMEM medium (Bio-Channel), DMSO (dimethyl sulfoxide), MTT (thiazole blue), 0.25% EDTA-Tripsin (pancreatin digestive juice), 1×PBS (phosphate buffer, PH7.2), 96-well plate (Corning), fetal bovine serum (FBS), 10,000 U/mL penicillin-G/streptomycin, high-speed freezing centrifuge (EPPENDORF 5810R), enzyme-linked immunosorbent assay (Tecan Spark).
(§2) 1. Cell Plating • A) Tumor cells were cultured to 80-90% density in DMEM (high sugar, containing 10% FBS and 100 U/mL penicillin-G/streptomycin) at 37° C., 5% CO2 and saturated humidity. • B) The culture medium was removed from the 10 cm culture dish. • C) Cells were washed with 10 ml 1×PBS. • D) 4 ml of 0.25% EDTA-Tripsin was added to an incubator to digest pancreatin for 5 minutes at 37° C. and 5% CO2, transferred to a 15 ml centrifuge tube, centrifuged for 5 minutes at 200 g, and supernatant was discarded to obtain cell precipitation. • E) The cell precipitation was resuspended with 4 ml DMEM medium, counted and adjusted to 50,000 cells/ml. • F) Cell suspension was added to a 96-well plate with a volume of 100 μL per well and cultured overnight in a 5% CO2 incubator at 37° C.
(§3) Compound Dilution • A) Preparing the tested compound gradient dilution solution: the tested compounds were prepared into 10 mM and 1 mM storage solution respectively. Firstly, 1 μl and 0.5 μl of 10 mM storage solution were dissolved in 1 ml of DMSO-free culture solution, respectively, to obtain diluted compounds with concentrations of 10 and 5 μM. Then, 1.5 μl of 1 mM storage solution was dissolved in 1.5 ml of DMSO-free culture solution to obtain a dilution compound with a concentration of 1 μM, and then diluted with a 3-fold continuous gradient with […] culture solution for a total of 7 concentrations. The concentrations of all 10 diluted compounds mentioned above were as follows: • 10 μM, 5 μM, 1 μM, 333.33 nM, 111.11 nM, 37.03 nM, 12.35 nM, 4.15 nM, 1.37 nM, 0.46 nM • B) After full mixing, 100 μL of culture compound solution was taken to replace the culture solution in the cell culture plate, with 4 duplicated wells at each concentration; • C) The cells were transferred to incubator to incubate for 3 days.
(§4) 3. MTT Detection • A) The cell culture plate was taken out and added with 5 mg/ml MTT 10 μL in the biosafety cabinet; • B) The cell culture plate was put back into the incubator and continued to incubate for 3 hours; • C) The cell culture plate was taken out to remove the culture solution, 100 μL isopropanol (containing 0.4 mM HCl, 0.1% NP-40) was added, shaking at room temperature for 30 minutes; • D) The absorbance value was measured at 570 nm on TECAN enzyme linked immunosorbent assay.

[2] = biological target: CDK12 (aa686-1082)/Cyclin K (Homo sapiens (Human), UniProt Q9NYV4); test: Enzyme activity test, mobility shift assay (Table 1); format: biochemical; conditions: 2 mM ATP; read-out: CDK12 kinase IC50
Outline: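 Mobility shift kinase assay on CDK9/Cyclin T1 and CDK12 (aa686-1082)/Cyclin K. Ten-point 3-fold dilution series started from a 0.5 mM intermediate solution in DMSO, with compound–enzyme pre-incubation of 0 or 60 min, in duplicate. Staurosporine served as positive control.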

[3] = system: ovarian cancer cells OVCAR3; test: Cell anti-proliferation experiment, MTT (Table 2); format: cell-based; conditions: Homo sapiens, OVCAR-3, 72 h, incubate 3 days
Text: as §1, §2, §3, §4

[4] = biological target: CDK7/Cyclin H/MAT1 kinase (Homo sapiens (Human), UniProt P50613); test: Enzyme activity test, mobility shift assay (Table 1); format: biochemical; conditions: 2 mM ATP; pre-incubated 0 and 60 minutes
[5] = biological target: CDK2/Cyclin El (Homo sapiens (Human), UniProt P24941); test: as above; format: biochemical; conditions: 2 mM ATP; read-out: CDK2 kinase IC50
Outline: (§5)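 Human CDK9/Cyclin T1 and CDK2/Cyclin E1 activity measured by mobility shift assay. Compounds tested as 10-point, 3-fold dilution series starting at 0.5 mM (diluted from 10 mM DMSO stock), in duplicate, with 0 min or 60 min compound–enzyme pre-incubation.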

[6] = biological target: CDK9/Cyclin Tl (Homo sapiens (Human), UniProt P50750); test: as above; format: biochemical; conditions: 2 mM ATP; read-out: CDK9 kinase IC50
Outline: as §5

CDK9/Cyclin Tl, sequence (P50750 whole entry): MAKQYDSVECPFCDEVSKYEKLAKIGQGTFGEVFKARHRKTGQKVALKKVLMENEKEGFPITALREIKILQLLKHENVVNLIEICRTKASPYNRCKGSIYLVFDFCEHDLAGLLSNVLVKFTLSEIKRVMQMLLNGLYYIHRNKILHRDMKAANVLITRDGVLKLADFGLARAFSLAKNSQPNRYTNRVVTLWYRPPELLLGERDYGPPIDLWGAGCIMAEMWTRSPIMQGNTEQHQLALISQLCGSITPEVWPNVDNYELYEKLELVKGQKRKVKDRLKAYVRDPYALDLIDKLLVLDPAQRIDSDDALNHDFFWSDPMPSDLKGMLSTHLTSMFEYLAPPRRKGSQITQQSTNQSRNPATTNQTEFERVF
CDK9/Cyclin Tl, sequence (O60563 whole entry partner): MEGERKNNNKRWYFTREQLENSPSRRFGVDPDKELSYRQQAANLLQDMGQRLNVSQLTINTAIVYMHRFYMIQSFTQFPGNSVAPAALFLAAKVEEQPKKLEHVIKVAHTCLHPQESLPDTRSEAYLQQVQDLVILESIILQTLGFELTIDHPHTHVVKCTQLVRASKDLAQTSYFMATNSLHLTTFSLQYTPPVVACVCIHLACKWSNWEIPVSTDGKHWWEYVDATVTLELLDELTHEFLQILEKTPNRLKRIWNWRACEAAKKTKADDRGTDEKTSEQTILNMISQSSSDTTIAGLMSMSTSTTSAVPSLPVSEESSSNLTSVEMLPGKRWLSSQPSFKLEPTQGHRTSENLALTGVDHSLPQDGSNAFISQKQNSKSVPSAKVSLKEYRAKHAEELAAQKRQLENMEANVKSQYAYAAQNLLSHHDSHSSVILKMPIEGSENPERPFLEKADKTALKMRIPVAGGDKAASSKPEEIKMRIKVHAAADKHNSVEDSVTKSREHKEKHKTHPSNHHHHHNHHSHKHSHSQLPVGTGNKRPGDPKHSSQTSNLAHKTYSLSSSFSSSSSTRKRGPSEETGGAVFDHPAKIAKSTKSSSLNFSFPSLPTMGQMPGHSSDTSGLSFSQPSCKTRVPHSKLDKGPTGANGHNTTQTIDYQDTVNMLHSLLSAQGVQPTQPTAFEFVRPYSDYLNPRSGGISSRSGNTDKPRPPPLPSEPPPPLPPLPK
CDK7/Cyclin H/MAT1 kinase, sequence (P50613 whole entry): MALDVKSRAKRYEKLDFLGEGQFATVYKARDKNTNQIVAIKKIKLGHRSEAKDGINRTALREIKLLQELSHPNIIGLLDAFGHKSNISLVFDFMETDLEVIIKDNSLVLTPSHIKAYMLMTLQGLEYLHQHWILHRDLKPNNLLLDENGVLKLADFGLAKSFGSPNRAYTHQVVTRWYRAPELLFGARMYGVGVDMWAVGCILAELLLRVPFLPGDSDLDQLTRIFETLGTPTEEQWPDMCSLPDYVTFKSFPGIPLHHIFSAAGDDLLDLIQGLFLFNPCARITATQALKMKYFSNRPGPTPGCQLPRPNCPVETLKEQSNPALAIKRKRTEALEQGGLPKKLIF
CDK7/Cyclin H/MAT1 kinase, sequence (P51946 whole entry partner): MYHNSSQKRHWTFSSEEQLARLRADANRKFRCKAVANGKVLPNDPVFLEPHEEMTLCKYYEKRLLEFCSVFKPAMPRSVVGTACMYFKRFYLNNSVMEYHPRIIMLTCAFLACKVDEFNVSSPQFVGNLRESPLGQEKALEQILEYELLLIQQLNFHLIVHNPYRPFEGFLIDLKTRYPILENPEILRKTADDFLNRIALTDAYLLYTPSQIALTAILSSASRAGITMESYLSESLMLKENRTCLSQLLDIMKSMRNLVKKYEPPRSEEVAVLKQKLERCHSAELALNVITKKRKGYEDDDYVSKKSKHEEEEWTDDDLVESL
CDK7/Cyclin H/MAT1 kinase, sequence (P51948 whole entry partner): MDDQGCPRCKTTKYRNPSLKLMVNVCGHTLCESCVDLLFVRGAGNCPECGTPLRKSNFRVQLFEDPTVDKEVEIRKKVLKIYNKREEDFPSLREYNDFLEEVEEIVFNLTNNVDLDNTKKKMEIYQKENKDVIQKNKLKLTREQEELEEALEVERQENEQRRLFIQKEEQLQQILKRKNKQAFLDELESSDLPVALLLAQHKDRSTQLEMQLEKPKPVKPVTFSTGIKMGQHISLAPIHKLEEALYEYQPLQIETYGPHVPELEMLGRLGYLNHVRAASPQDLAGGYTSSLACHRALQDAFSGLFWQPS
CDK12 (aa686-1082)/Cyclin K, sequence (Q9NYV4 686-1082): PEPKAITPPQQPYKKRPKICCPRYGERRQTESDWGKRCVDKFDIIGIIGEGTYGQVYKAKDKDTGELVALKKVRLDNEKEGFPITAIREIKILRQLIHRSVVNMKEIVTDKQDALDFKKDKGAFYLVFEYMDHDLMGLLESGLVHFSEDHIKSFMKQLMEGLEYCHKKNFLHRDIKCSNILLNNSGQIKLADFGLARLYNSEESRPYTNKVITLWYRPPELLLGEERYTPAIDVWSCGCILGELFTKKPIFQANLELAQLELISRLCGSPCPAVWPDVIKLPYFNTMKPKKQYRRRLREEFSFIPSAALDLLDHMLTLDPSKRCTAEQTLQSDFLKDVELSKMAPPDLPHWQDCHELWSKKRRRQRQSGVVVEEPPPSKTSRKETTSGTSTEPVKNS
CDK12 (aa686-1082)/Cyclin K, sequence (O75909 whole entry partner, the tested form may be a part): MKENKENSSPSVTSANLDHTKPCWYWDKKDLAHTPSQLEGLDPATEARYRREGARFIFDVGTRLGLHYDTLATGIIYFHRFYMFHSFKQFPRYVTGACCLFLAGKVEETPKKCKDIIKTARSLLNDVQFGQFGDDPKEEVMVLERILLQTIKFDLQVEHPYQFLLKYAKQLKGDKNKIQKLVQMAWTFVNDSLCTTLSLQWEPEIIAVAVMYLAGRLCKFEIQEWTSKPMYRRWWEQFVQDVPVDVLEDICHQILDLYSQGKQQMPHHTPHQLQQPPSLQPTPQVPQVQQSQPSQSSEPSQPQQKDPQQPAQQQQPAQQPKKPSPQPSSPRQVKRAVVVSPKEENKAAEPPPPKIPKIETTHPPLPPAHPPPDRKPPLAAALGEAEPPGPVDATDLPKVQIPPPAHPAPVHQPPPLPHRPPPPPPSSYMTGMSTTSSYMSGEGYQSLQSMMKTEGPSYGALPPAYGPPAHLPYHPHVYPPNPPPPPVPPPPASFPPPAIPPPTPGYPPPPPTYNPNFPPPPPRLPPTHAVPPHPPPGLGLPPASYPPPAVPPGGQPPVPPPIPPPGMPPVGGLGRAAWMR

Structure (SMILES)	IC50 [1]	IC50 [2]	IC50 [3]	IC50 [4]	IC50 [5]	IC50 [6]
COC(=O)Nc1ccc2c(-c3nc(N[C@H]4CCC5(CC5)NC4)ncc3C(F)(F)F)c[nH]c2c1Cl [Example T-81]	1.26 nM	> 500 nM	55.5 nM	< 50 nM	> 500 nM	> 500 nM
COC(=O)Nc1ccc2c(-c3nc(N[C@H]4CCC(C)(C)NC4)ncc3C(F)(F)F)c[nH]c2c1OCC(F)(F)F [Example T-91]	8.75 nM	–	80.2 nM	< 50 nM	–	–
COC(=O)Nc1ccc2c(-c3nc(N[C@H]4CCCNC4)ncc3C(F)(F)F)c[nH]c2c1OC(F)(F)F [Example T-122]	0.54 nM	–	–	< 50 nM	–	–
COC(=O)Nc1ccc2c(-c3nc(N[C@H]4CCC(C)(C)NC4)ncc3C(F)(F)F)c[nH]c2c1OC [Example T-132]	4.52 nM	> 500 nM	100 nM	< 50 nM	> 500 nM	> 500 nM
COC(=O)Nc1ccc2c(-c3nc(N[C@H]4CCC5(CC5)NC4)ncc3C(F)(F)F)c[nH]c2c1C(C)(F)F [Example T-137]	–	> 500 nM	–	< 50 nM	> 500 nM	> 500 nM
COC(=O)Nc1ccc2c(-c3nc(N[C@H]4CCCNC4)ncc3C(F)(F)F)c[nH]c2c1OCC(F)(F)F [Example T-139]	–	> 500 nM	–	< 50 nM	> 500 nM	> 500 nM
COC(=O)Nc1ccc2c(-c3nc(N[C@H]4CC[C@@H](C)NC4)ncc3C(F)(F)F)c[nH]c2c1OC [Example T-140]	–	> 500 nM	–	50 to 500 nM	> 500 nM	> 500 nM
COC(=O)Nc1ccc2c(-c3nc(N[C@H]4CC[C@@H](C)NC4)ncc3C(F)(F)F)c[nH]c2c1Br [Example T-143]	–	> 500 nM	–	50 to 500 nM	> 500 nM	> 500 nM
COC(=O)Nc1ccc2c(-c3nc(N[C@H]4CC[C@@H](C)NC4)ncc3C(F)(F)F)c[nH]c2c1C(F)(F)F [Example T-149]	–	> 500 nM	–	50 to 500 nM	> 500 nM	> 500 nM
COC(=O)Nc1ccc2c(-c3nc(N[C@H]4CCC5(CC5)NC4)ncc3C(F)(F)F)c[nH]c2c1OC(F)F [Example T-154]	–	> 500 nM	–	< 50 nM	> 500 nM	> 500 nM
COC(=O)Nc1ccc2c(-c3nc(N[C@H]4CCCNC4)ncc3C(F)(F)F)c[nH]c2c1C(F)F [Example T-155]	–	> 500 nM	–	< 50 nM	> 500 nM	> 500 nM
CCOc1c(NC(=O)OC)ccc2c(-c3nc(N[C@H]4CCCN(C)C4)ncc3C(F)(F)F)c[nH]c12 [Example T-161]	–	> 500 nM	–	< 50 nM	> 500 nM	> 500 nM
COC(=O)N(C)c1ccc2c(-c3nc(N[C@H]4CCCNC4)ncc3C(F)(F)F)c[nH]c2c1Cl [Example T-162]	–	> 500 nM	–	< 50 nM	> 500 nM	> 500 nM
COC(=O)N(C)c1ccc2c(-c3nc(N[C@H]4CCCNC4)ncc3C(F)(F)F)c[nH]c2c1C(F)(F)F [Example T-164]	–	> 500 nM	–	< 50 nM	> 500 nM	> 500 nM
COC(=O)N(C)c1ccc2c(-c3nc(N[C@H]4CCCNC4)ncc3C(F)(F)F)c[nH]c2c1OC(F)F [Example T-165]	–	> 500 nM	–	< 50 nM	> 500 nM	> 500 nM
COC(=O)Nc1ccc2c(-c3nc(N[C@H]4CCCN(C)C4)ncc3C(F)(F)F)c[nH]c2c1Cl [Example T-168]	–	> 500 nM	–	< 50 nM	> 500 nM	> 500 nM
COC(=O)Nc1ccc2c(-c3nc(N[C@H]4CCCN(C)C4)ncc3C(F)(F)F)c[nH]c2c1C(F)F [Example T-169]	–	> 500 nM	–	< 50 nM	> 500 nM	> 500 nM

More lines, now with the values ahead:

IC50 [1]	IC50 [2]	IC50 [3]	IC50 [4]	IC50 [5]	IC50 [6]	Structure (SMILES)
5.55 nM	–	127 nM	–	–	–	COC(=O)Nc1ccc2c(-c3nc(N[C@H]4CCCNC4)ncc3C(F)(F)F)c[nH]c2c1C(C)=O [Example T-98]
1.54 nM	–	53.4 nM	< 50 nM	–	–	COC(=O)Nc1ccc2c(-c3nc(N[C@H]4CCCNC4)ncc3C(F)(F)F)c[nH]c2c1C(C)(F)F [Example T-99]
8.68 nM	> 500 nM	9.08 nM	< 50 nM	> 500 nM	> 500 nM	COC(=O)Nc1ccc2c(-c3nc(N[C@H]4CCC5(CC5)NC4)ncc3C(F)(F)F)c[nH]c2c1C1CC1 [Example T-128]
4.61 nM	> 500 nM	161 nM	< 50 nM	> 500 nM	> 500 nM	COC(=O)Nc1ccc2c(-c3nc(N[C@H]4CCC5(CC5)NC4)ncc3C(F)(F)F)c[nH]c2c1C(C)=O [Example T-135]
–	> 500 nM	–	< 50 nM	> 500 nM	> 500 nM	CCOc1c(NC(=O)OC)ccc2c(-c3nc(N[C@H]4CCCNC4)ncc3C(F)(F)F)c[nH]c12 [Example T-138]
5.05 nM	> 500 nM	120 nM	< 50 nM	> 500 nM	> 500 nM	COC(=O)Nc1ccc2c(-c3nc(N[C@H]4CCC5(CC5)NC4)ncc3C(F)(F)F)c[nH]c2c1Br [Example T-142]
–	> 500 nM	–	50 to 500 nM	> 500 nM	> 500 nM	COC(=O)Nc1ccc2c(-c3nc(N[C@H]4CC[C@@H](C)NC4)ncc3C(F)(F)F)c[nH]c2c1Cl [Example T-146]
13.5 nM	> 500 nM	161 nM	< 50 nM	> 500 nM	> 500 nM	COC(=O)Nc1ccc2c(-c3nc(N[C@H]4CCC5(CC5)NC4)ncc3C(F)(F)F)c[nH]c2c1OCC(F)(F)F [Example T-150]
–	> 500 nM	–	50 to 500 nM	> 500 nM	> 500 nM	COC(=O)Nc1ccc2c(-c3nc(N[C@H]4CC[C@@H](C)NC4)ncc3C(F)(F)F)c[nH]c2c1OCC(F)(F)F [Example T-151]
–	> 500 nM	–	< 50 nM	> 500 nM	> 500 nM	CCOC(=O)Nc1ccc2c(-c3nc(N[C@H]4CCC(C)(C)NC4)ncc3C(F)(F)F)c[nH]c2c1C(C)(F)F [Example T-153]
1.23 nM	> 500 nM	–	< 50 nM	> 500 nM	> 500 nM	COC(=O)Nc1ccc2c(-c3nc(N[C@H]4CCC5(CC5)NC4)ncc3C(F)(F)F)c[nH]c2c1C(F)F [Example T-156]
–	> 500 nM	–	< 50 nM	> 500 nM	> 500 nM	COC(=O)N(C)c1ccc2c(-c3nc(N[C@H]4CCCNC4)ncc3C(F)(F)F)c[nH]c2c1C(F)F [Example T-163]
